One block for each compound: values may come before it.
Experiment: solvent given as SMILES

fluorescence lifetime (in ClC(Cl)Cl): 0.4 ns
Compound: O=Cc1ccc(C#CC(C#Cc2ccc(C=O)o2)=Cc2ccc(C=C(C#Cc3ccc(C=O)o3)C#Cc3ccc(C=O)o3)s2)o1

fluorescence lifetime (in c1cc(-n2c3ccccc3c3ccccc32)cc(-n2c3ccccc3c3ccccc32)c1): 6 ns
Compound: c1ccc(-c2nc(-c3ccccc3)nc(-c3ccc(-c4ccc(N5c6ccccc6[Si](c6ccccc6)(c6ccccc6)c6ccccc65)cc4)cc3)n2)cc1

Compound: CC(=O)c1ccc2ccc3cccc4ccc1c2c34
fluorescence lifetime (in C1CCOC1): 13.4 ns
fluorescence lifetime (in CC#N): 9.47 ns
fluorescence lifetime (in CCCCCC): 6.56 ns
fluorescence lifetime (in CCO): 0.784 ns
fluorescence lifetime (in CN(C)C=O): 5.34 ns
fluorescence lifetime (in CO): 0.538 ns
fluorescence lifetime (in Cc1ccccc1): 2.8 ns
fluorescence lifetime (in ClCCl): 4.8 ns

Compound: CC(C)(C)c1ccc(-c2nnc(-c3c(-n4c5ccccc5c5ccccc54)c(-n4c5ccccc5c5ccccc54)c(-n4c5ccccc5c5ccccc54)c(-n4c5ccccc5c5ccccc54)c3-n3c4ccccc4c4ccccc43)o2)cc1
fluorescence lifetime (in Cc1ccccc1): 2.9 ns

fluorescence lifetime (in C1COCCO1): 13.3 ns
fluorescence lifetime (in CCOC(C)=O): 9 ns
Compound: c1ccc(Nc2nc(Nc3ccccc3)nc(Nc3ccc4cc5ccccc5cc4c3)n2)cc1

fluorescence lifetime (in C1CCOC1): 2.8 ns
Compound: CCOC(=O)c1ccc(C2=CC3=c4cc(-c5ccc(C(=O)OCC)cc5)c5nc(C(F)(F)C(F)(F)C(F)(F)F)nc6c(-c7ccc(C(=O)OCC)cc7)cc(c4c65)C4=CC(c5ccc(C(=O)OCC)cc5)=C5N=C(C(F)(F)C(F)(F)C(F)(F)F)N=C2C5C43)cc1 (stereo not given)

fluorescence lifetime (in C1CCOC1): 0.42 ns
fluorescence lifetime (in CC#N): 0.75 ns
fluorescence lifetime (in CCO): 0.41 ns
fluorescence lifetime (in CN(C)C=O): 0.25 ns
fluorescence lifetime (in CO): 0.33 ns
fluorescence lifetime (in CS(C)=O): 0.15 ns
Compound: CSc1sc(C(C)=O)c2nn[nH]c(=O)c12

fluorescence lifetime (in ClC(Cl)Cl): 15 ns
Compound: Cc1ccc(-n2c3ccccc3c3cc(-c4ccc5[n+](c4)[B-](F)(F)n4c-5nc5c6ccccc6c6ccccc6c54)ccc32)cc1

fluorescence lifetime (in CC#N): 0.97 ns
Compound: COc1ccc(/C=C/c2nc3c4ccccc4c4ccccc4c3o2)cc1

Compound: COc1ccc2c(c1)c1cc(OC)ccc1n2-c1cccc(-n2c3ccc(OC)cc3c3cc(OC)ccc32)c1C#N
fluorescence lifetime (in Cc1ccccc1): 13 ns
fluorescence lifetime (in O=P(c1ccccc1)(c1ccccc1)c1ccccc1Oc1ccccc1P(=O)(c1ccccc1)c1ccccc1): 12.8 ns

fluorescence lifetime (in C1CCCCC1): 8.18 ns
Compound: c1cc2c3c(c1)OCCCCCCCOc1cccc(c1-c1c4ccccc4c-3c3ccccc13)OCCCCCCCO2

fluorescence lifetime (in CC#N): 2.66 ns
fluorescence lifetime (in CO): 2.47 ns
fluorescence lifetime (in O): 3.17 ns
Compound: CN(C)CCCN1c2ccccc2Sc2ccc(C(F)(F)F)cc21

fluorescence lifetime (in ClCCl): 1.2 ns
Compound: c1ccc(N(c2ccccc2)c2ccc(-c3ccc4c(c3)C3(c5ccccc5Sc5ccccc53)c3cc(-c5ccc(N(c6ccccc6)c6ccccc6)cc5)ccc3-4)cc2)cc1

fluorescence lifetime (in C1CCCCC1): 1.08 ns
fluorescence lifetime (in CC#N): 1.58 ns
Compound: CN(C)c1ccc(-c2nc3cccnc3[nH]2)cc1

Compound: O=[N+]([O-])c1ccc(F)cc1C1CC(c2cccc3ccccc23)=NN1c1ccccc1 (stereo not given)
fluorescence lifetime (in C1CCCCC1): 3.08 ns
fluorescence lifetime (in C1CCOC1): 3.76 ns
fluorescence lifetime (in C1COCCO1): 3.77 ns
fluorescence lifetime (in CC#N): 3.81 ns
fluorescence lifetime (in CC(C)O): 2.85 ns
fluorescence lifetime (in CCOC(C)=O): 3.67 ns
fluorescence lifetime (in CCOCC): 3.53 ns
fluorescence lifetime (in CO): 2.86 ns
fluorescence lifetime (in Cc1ccccc1): 3.29 ns
fluorescence lifetime (in ClC(Cl)Cl): 3.68 ns
fluorescence lifetime (in O): 1.4 ns

fluorescence lifetime (in CC#N): 3.93 ns
Compound: COc1ccc(-c2csc(/C(C#N)=C/c3ccccc3Cl)n2)cc1

fluorescence lifetime (in ClCCl): 7 ns
Compound: COc1ccc(C#Cc2c3ccccc3c(C#Cc3ccc(OC)cc3)c3cc4ccccc4cc23)cc1

fluorescence lifetime (in ClC(Cl)Cl): 8.46 ns
Compound: CCN(CC)c1ccc2cc(-c3ccc(-c4ccc5ccc6c(-c7ccc(-c8cc9ccc(N(CC)CC)cc9oc8=O)cc7)ccc7ccc4c5c76)cc3)c(=O)oc2c1

fluorescence lifetime (in CO): 0.83 ns
fluorescence lifetime (in ClC(Cl)Cl): 4.41 ns
Compound: CC[n+]1c(C=C2C(=O)C(C=C3Sc4cc(Cl)ccc4N3C)=C2[O-])[se]c2ccccc21

fluorescence lifetime (in CS(C)=O): 0.36 ns
Compound: O=S(=O)([O-])CCCCN1C=C/C(=C/C=C/C=C/c2cc[n+](CCCCS(=O)(=O)[O-])c3ccccc23)c2ccccc21

fluorescence lifetime (in C1CCCCC1): 4 ns
Compound: CCCCC#Cc1cccc2cc(CCCC)c3cc(-c4cc[b-]5c(c4)c(CCCC)cc4cccc(C#CCCCC)[n+]54)cc[b-]3[n+]12

fluorescence lifetime (in O): 8.33 ns
Compound: COc1ccc2ccc(O)cc2c1

fluorescence lifetime (in ClC(Cl)Cl): 3.4 ns
Compound: Cc1ccc(S(=O)(=O)/N=c2\oc3cccc4c5c(-c6ccccc6)oc6cccc(c(c2-c2ccccc2)c34)c65)cc1

Compound: [NH-]c1cc(N)cc(-c2nc3ccccc3s2)c1
fluorescence lifetime (in O): 3.98 ns

Compound: COc1ccc2c(=O)c3c([nH]c2c1)-c1ccccc1NC3(C)C
fluorescence lifetime (in C1CCOC1): 8.25 ns
fluorescence lifetime (in CC#N): 9.16 ns
fluorescence lifetime (in CCCCO): 10.2 ns
fluorescence lifetime (in CCCO): 10.1 ns
fluorescence lifetime (in CCO): 9.74 ns
fluorescence lifetime (in CCOC(C)=O): 8.04 ns
fluorescence lifetime (in CN(C)C=O): 10.5 ns
fluorescence lifetime (in CO): 9.35 ns
fluorescence lifetime (in CS(C)=O): 11.4 ns
fluorescence lifetime (in Cc1ccccc1): 7.24 ns
fluorescence lifetime (in ClC(Cl)(Cl)Cl): 5.08 ns
fluorescence lifetime (in ClCCl): 9.46 ns
fluorescence lifetime (in O): 7.42 ns
fluorescence lifetime (in c1ccccc1): 7.52 ns

Compound: CC1=CC(C)=[N+]2C1=C(c1ccccc1)c1c(C)cc(C)n1[B-]2(F)F
fluorescence lifetime (in C1CCOC1): 3.73 ns
fluorescence lifetime (in CC#N): 3.81 ns
fluorescence lifetime (in CC(=O)C(C)(C)C): 3.39 ns
fluorescence lifetime (in CC(C)=O): 3.65 ns
fluorescence lifetime (in CCCCCC): 3.37 ns
fluorescence lifetime (in CCOC(C)=O): 3.98 ns
fluorescence lifetime (in CO): 3.9 ns
fluorescence lifetime (in Cc1ccccc1): 3.4 ns
fluorescence lifetime (in ClCCl): 3.97 ns

— the Deep4Chem optical property database
